Test results from ChEMBL document CHEMBL5465560, “Selectivity Literature for EUbOPEN Chemogenomic Library” (2024).

Tests used:
[1] = molecular target: Bone morphogenetic protein receptor type-1B (Homo sapiens, UniProt O00238); assay: Selectivity interaction (KinomeScan (DiscoverX)) EUB0001049a BMPR1B; conditions: at 1 µM
[2] = molecular target: T1, Dual specificity mitogen-activated protein kinase kinase 6 (Homo sapiens) (UniProt P52564); assay: Selectivity interaction (Kinase panel (KiNativ target engagement assay in Jurkat cells)) EUB0001635a MAP2K6; format: cell-based; conditions: Selectivity number of off-targets 0.0, Selectivity number of targets 233.0, Source Knowledge https://www.sciencedirect.com/science/article/pii/S2451945619300674?via%3Dihub, at 1 µM
T1 sequence (whole entry): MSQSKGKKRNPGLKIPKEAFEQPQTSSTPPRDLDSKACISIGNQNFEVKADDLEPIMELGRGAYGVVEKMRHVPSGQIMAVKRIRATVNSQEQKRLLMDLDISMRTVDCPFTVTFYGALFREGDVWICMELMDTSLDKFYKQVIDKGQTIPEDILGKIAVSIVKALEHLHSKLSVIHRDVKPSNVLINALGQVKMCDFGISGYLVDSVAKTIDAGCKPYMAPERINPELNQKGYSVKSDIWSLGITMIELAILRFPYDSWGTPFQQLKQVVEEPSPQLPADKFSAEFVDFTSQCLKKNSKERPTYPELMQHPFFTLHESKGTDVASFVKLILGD

[3] = molecular target: cAMP-dependent protein kinase catalytic subunit alpha (Homo sapiens, UniProt P17612); conditions: at 10 µM
[4] = molecular target: Homeodomain-interacting protein kinase 1 (Homo sapiens, UniProt Q86Z02); assay: Selectivity interaction (KinomeScan (DiscoverX)) EUB0000092b HIPK1; conditions: at 10 µM
Sequence of Homeodomain-interacting protein kinase 1 (Q86Z02 whole entry, looked up): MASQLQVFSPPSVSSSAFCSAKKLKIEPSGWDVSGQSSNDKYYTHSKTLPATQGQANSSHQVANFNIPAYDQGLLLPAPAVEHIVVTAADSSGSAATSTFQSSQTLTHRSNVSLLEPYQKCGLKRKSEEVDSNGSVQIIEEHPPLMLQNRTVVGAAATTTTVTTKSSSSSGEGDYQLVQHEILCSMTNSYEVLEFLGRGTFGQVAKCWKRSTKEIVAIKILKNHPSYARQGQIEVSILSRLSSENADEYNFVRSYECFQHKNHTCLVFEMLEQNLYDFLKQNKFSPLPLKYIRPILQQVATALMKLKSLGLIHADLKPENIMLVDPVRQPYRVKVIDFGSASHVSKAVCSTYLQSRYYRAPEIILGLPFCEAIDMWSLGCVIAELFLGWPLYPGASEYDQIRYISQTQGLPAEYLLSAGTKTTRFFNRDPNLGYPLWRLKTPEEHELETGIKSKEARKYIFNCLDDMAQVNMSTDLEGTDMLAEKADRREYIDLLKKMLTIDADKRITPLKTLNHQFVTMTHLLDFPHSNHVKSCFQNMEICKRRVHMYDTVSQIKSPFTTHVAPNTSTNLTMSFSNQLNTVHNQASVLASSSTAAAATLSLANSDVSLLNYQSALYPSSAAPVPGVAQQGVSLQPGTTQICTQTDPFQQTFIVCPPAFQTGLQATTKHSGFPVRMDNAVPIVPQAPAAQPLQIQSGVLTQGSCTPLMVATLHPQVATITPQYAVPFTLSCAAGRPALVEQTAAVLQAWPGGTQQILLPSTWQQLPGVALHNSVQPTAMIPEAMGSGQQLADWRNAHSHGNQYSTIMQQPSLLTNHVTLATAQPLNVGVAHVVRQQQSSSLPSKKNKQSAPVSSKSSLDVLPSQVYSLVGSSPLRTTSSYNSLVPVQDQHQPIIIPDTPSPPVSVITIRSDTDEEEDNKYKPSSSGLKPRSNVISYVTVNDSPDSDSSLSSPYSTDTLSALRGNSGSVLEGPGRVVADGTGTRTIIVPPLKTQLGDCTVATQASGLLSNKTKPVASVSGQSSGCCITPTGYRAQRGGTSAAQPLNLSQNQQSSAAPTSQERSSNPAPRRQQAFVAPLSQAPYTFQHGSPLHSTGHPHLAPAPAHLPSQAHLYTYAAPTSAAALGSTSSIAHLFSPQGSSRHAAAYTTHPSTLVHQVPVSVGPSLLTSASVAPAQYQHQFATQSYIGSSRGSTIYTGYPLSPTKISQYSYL

[5] = molecular target: Serine/threonine-protein kinase MRCK beta (Homo sapiens) (UniProt Q9Y5S2); assay: Selectivity interaction (KinomeScan (DiscoverX)) EUB0000618a CDC42BPB; conditions: at 10 µM
Sequence of Serine/threonine-protein kinase MRCK beta (Homo sapiens) (Q9Y5S2 whole entry): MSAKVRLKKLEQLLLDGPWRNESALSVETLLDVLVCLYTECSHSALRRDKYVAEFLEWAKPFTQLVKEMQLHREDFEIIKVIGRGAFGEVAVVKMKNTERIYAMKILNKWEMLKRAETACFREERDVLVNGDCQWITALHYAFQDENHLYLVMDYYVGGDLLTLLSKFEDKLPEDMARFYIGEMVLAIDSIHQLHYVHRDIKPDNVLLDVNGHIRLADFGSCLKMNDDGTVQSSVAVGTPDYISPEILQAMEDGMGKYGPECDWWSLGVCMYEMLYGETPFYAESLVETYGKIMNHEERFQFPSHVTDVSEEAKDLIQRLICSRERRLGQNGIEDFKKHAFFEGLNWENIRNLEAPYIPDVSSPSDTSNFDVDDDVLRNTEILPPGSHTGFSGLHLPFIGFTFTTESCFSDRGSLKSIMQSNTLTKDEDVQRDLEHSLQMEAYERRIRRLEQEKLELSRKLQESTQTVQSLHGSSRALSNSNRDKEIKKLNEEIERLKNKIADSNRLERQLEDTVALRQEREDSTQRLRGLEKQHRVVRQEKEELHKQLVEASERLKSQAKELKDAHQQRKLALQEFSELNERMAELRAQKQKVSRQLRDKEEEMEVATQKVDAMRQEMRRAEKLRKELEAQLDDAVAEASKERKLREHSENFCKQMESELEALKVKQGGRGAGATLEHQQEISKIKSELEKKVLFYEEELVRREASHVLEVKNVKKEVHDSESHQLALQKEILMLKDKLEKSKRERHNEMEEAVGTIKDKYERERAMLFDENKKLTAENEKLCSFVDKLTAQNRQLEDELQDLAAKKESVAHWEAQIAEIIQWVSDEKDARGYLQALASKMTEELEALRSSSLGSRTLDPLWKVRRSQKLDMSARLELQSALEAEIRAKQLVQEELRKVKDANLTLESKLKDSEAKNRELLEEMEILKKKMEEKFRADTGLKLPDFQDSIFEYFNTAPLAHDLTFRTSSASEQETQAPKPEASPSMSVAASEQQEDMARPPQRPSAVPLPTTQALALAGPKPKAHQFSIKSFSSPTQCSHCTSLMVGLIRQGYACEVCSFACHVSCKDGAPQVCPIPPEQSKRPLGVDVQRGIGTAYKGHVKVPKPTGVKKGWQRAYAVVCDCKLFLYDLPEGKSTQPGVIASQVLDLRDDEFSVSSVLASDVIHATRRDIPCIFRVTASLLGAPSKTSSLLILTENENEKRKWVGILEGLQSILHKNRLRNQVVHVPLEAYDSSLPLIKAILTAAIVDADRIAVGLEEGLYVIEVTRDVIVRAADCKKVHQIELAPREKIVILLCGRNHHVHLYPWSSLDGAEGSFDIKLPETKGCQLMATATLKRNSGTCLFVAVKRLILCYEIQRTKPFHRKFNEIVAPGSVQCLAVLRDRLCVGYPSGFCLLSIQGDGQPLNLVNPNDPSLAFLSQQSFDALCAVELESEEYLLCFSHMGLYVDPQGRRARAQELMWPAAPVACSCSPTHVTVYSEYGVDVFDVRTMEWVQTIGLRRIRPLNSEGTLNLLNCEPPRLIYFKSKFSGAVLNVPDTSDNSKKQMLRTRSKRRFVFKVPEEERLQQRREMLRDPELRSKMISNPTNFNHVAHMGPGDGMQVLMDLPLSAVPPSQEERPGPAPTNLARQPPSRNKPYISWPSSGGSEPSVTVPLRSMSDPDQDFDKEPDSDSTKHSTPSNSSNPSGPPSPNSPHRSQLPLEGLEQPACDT

[6] = molecular target: T2, Tyrosine-protein kinase Mer (Homo sapiens) (UniProt Q12866); assay: Selectivity interaction (KinomeScan (DiscoverX)) EUB0001619a MERTK; conditions: at 1 µM
T2 sequence (whole entry): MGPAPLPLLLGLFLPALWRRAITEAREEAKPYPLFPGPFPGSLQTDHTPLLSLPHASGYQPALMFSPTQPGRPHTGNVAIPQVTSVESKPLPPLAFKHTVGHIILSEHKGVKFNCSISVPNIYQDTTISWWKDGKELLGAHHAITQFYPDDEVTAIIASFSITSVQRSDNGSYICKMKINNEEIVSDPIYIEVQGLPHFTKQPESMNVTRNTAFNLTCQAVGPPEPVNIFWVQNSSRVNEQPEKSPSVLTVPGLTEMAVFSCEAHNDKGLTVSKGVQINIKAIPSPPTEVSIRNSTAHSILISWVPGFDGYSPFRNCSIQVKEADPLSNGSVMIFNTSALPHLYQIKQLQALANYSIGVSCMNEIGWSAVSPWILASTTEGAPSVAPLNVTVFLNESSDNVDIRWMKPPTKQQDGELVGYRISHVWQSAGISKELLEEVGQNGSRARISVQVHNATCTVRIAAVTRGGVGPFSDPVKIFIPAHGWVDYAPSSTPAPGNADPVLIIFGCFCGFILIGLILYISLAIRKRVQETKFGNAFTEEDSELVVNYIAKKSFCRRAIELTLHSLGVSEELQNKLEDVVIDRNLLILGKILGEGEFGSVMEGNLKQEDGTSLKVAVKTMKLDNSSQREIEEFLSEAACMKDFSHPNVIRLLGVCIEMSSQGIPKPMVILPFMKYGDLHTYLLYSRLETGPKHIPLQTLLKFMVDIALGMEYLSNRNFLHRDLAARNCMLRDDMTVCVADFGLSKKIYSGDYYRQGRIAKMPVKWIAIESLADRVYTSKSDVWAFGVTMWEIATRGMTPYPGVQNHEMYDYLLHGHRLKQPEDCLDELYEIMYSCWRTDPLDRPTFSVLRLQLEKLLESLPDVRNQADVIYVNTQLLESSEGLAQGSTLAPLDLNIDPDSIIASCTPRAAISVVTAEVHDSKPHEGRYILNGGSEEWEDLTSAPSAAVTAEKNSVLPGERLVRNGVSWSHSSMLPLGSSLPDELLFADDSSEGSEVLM

[7] = molecular target: T3, Prostaglandin G/H synthase 2 (Homo sapiens) (UniProt P35354); assay: Selectivity interaction (Panel of kinases, GPCRs, ion channels and transporters (enzymatic assay)) EUB0000266bCl PTGS2
T3 sequence (whole entry): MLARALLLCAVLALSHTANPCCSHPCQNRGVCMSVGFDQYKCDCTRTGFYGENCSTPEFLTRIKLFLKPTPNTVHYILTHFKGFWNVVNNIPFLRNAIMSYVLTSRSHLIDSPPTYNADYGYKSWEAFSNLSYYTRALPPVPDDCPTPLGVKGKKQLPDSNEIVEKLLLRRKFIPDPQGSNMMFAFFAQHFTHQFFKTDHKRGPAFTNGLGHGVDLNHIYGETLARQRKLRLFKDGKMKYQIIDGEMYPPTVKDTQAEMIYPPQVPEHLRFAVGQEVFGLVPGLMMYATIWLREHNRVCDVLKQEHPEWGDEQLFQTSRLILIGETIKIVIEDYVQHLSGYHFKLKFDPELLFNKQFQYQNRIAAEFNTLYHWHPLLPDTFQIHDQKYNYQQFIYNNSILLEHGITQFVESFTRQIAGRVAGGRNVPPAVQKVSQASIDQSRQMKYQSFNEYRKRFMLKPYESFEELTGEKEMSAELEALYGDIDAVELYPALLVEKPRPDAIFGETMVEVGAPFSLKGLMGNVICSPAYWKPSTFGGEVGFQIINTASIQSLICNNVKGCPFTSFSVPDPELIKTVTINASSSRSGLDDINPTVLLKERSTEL

Sequence of Bone morphogenetic protein receptor type-1B (O00238 whole entry): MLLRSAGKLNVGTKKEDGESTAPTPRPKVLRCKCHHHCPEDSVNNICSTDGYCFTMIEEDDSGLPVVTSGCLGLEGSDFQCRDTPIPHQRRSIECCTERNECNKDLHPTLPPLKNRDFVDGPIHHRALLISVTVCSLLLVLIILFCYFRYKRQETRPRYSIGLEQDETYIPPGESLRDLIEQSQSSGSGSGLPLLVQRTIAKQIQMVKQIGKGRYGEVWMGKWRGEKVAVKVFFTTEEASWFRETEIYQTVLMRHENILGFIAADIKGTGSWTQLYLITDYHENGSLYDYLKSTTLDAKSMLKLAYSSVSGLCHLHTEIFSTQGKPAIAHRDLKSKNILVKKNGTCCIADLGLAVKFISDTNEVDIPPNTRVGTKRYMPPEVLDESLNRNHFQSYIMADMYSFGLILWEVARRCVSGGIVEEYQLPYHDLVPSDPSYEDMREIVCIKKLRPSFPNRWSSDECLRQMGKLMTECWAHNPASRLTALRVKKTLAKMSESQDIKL

Which % of control [1] does the source give for `COc1cc(Nc2nc(C)cc(-c3cnn4nc(OC)ccc34)n2)cc(C(F)(F)F)c1` here?
The % of control was 81%.

`C=CC(=O)Nc1ccc(C(=O)Nc2[nH]nc3c2CN(C(=O)N[C@H](CN(C)C)c2ccccc2)C3(C)C)cc1` was tested. Which % of engagement [2] did it give?
Its % of engagement is -2.9%.

With `CCN(CC)CCCCNc1ncc2cc(-c3cc(OC)cc(OC)c3)c(NC(=O)NC(C)(C)C)nc2n1` as the compound, how does the % of control [3] read?
Its % of control is 100%.

How did the % of control [4] turn out when `CCC(=O)N1CCN(c2ccc(-n3c(=O)ccc4cnc5ccc(-c6cnc7ccccc7c6)cc5c43)cc2C(F)(F)F)CC1` was run?
The % of control was 63%.

Which % of control [5] does the source give for `O[C@H]1CC[C@H](Nc2ncc3nc(Nc4c(F)cc(F)cc4F)n([C@H]4CCOC4)c3n2)CC1` here?
Its % of control is 100%.

Which % of control [6] does the source give for `N#Cc1cccc(-c2c[nH]c3ncnc(N4CCOCC4)c23)c1` here?
The % of control was 100%.

For `CCn1c(-c2nc3cc(C(=O)N4CCCC(N)C4)ccc3n2C)cc2ccccc21` (configuration not stated), which pXC50 [7] is on record?
Its pXC50 is under 4 M.
